Measurements as given in PubChem BioAssay AID2060617 (Molecular Pharmacology Branch, DTP, NCI, 2025).

Tested on: 485368-065-R4-J2-PDC spheroids with HUVEC/MSC, viability
Test: Anticancer human tumor 485368-065-R4-J2-PDC patient-derived pancreatic carcinoma cell line growth inhibition [CLK]
Conditions: for IC50: curve of first compound; for viability, T/C: stronger effect = lower value
Procedure, shortened: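 Multi-cell-type spheroids combined patient-derived tumor cells with HUVEC endothelial cells and human mesenchymal stem cells. Paired agents were dosed in half-log steps down from about clinical Cmax, or from 10 microM where Cmax was unknown.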

[1] = second compound 0.0316 µM, first compound 0.0316 µM
[2] = second compound 0.0316 µM, first compound 0.1 µM
[3] = second compound 0.1 µM, first compound 0.0316 µM
[4] = second compound 0.1 µM, first compound 0.1 µM
[5] = second compound 0.316 µM, first compound 0.0316 µM
[6] = second compound 0.316 µM, first compound 0.1 µM
[7] = second compound 1 µM, first compound 0.0316 µM
[8] = second compound 1 µM, first compound 0.1 µM
[9] = second compound 3.16 µM, first compound 0.0316 µM
[10] = second compound 3.16 µM, first compound 0.1 µM
[11] = second compound 10 µM, first compound 0.0316 µM
[12] = second compound 10 µM, first compound 0.1 µM
[13] = second compound 0.0316 µM, first compound 0.316 µM
[14] = second compound 0.0316 µM, first compound 1 µM
[15] = second compound 0.0316 µM, first compound 3.16 µM
[16] = second compound 0.0316 µM, first compound 10 µM
[17] = second compound 0.1 µM, first compound 0.316 µM
[18] = second compound 0.1 µM, first compound 1 µM
[19] = second compound 0.1 µM, first compound 3.16 µM
[20] = second compound 0.1 µM, first compound 10 µM
[21] = second compound 0.316 µM, first compound 0.316 µM
[22] = second compound 0.316 µM, first compound 1 µM
[23] = second compound 0.316 µM, first compound 3.16 µM
[24] = second compound 0.316 µM, first compound 10 µM
[25] = second compound 1 µM, first compound 0.316 µM
[26] = second compound 1 µM, first compound 1 µM
[27] = second compound 1 µM, first compound 3.16 µM
[28] = second compound 1 µM, first compound 10 µM
[29] = second compound 3.16 µM, first compound 0.316 µM
[30] = second compound 3.16 µM, first compound 1 µM
[31] = second compound 3.16 µM, first compound 3.16 µM
[32] = second compound 3.16 µM, first compound 10 µM
[33] = second compound 10 µM, first compound 0.316 µM
[34] = second compound 10 µM, first compound 1 µM
[35] = second compound 10 µM, first compound 3.16 µM
[36] = second compound 10 µM, first compound 10 µM
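Note: spheroids exposed to compounds for seven days.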
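Throughout, for viability, T/C: 100% = DMSO vehicle control wells.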

Work on Cn1ncnc1[C@H]1c2n[nH]c(=O)c3cc(F)cc(c23)N[C@@H]1c1ccc(F)cc1 + CNC(=O)c1ccc(Nc2nc(OC3CCCC3)c3c(-c4ccc5nc(C)oc5c4)c[nH]c3n2)c(OC)c1 yielded an IC50 (second compound 0.0316 µM) of over 100 nM, an IC50 (second compound 0.1 µM) of over 100 nM and an IC50 (second compound 0.316 µM) of over 100 nM. The IC50 (second compound 1 µM) was over 100 nM, the IC50 (second compound 3.16 µM) was over 100 nM and the IC50 (second compound 10 µM) was over 100 nM. It also gave a viability, T/C (second compound 0.0316 µM, first compound 0.000316 µM) of 91.9%, a viability, T/C (second compound 0.0316 µM, first compound 0.001 µM) of 94.1% and a viability, T/C (second compound 0.0316 µM, first compound 0.00316 µM) of 97.4%. The viability, T/C (second compound 0.0316 µM, first compound 0.01 µM) was 105%, the viability, T/C [1] was 98% and the viability, T/C [2] was 90.8%. It also gave a viability, T/C (second compound 0.1 µM, first compound 0.000316 µM) of 89.3%, a viability, T/C (second compound 0.1 µM, first compound 0.001 µM) of 97.8% and a viability, T/C (second compound 0.1 µM, first compound 0.00316 µM) of 99%. The viability, T/C (second compound 0.1 µM, first compound 0.01 µM) was 105%, the viability, T/C [3] was 89.7% and the viability, T/C [4] was 82.4%. The viability, T/C (second compound 0.316 µM, first compound 0.000316 µM) was 79.6%, the viability, T/C (second compound 0.316 µM, first compound 0.001 µM) was 79.5% and the viability, T/C (second compound 0.316 µM, first compound 0.00316 µM) was 81.2%. For the same molecule, the viability, T/C (second compound 0.316 µM, first compound 0.01 µM) was 77.9%, the viability, T/C [5] was 89% and the viability, T/C [6] was 73%. It also gave a viability, T/C (second compound 1 µM, first compound 0.000316 µM) of 74.7%, a viability, T/C (second compound 1 µM, first compound 0.001 µM) of 75.8% and a viability, T/C (second compound 1 µM, first compound 0.00316 µM) of 79%. It also gave a viability, T/C (second compound 1 µM, first compound 0.01 µM) of 66.6%, a viability, T/C [7] of 77% and a viability, T/C [8] of 63.3%. It also gave a viability, T/C (second compound 3.16 µM, first compound 0.000316 µM) of 78.4%, a viability, T/C (second compound 3.16 µM, first compound 0.001 µM) of 74.3% and a viability, T/C (second compound 3.16 µM, first compound 0.00316 µM) of 69.8%. It also gave a viability, T/C (second compound 3.16 µM, first compound 0.01 µM) of 67.4%, a viability, T/C [9] of 59.1% and a viability, T/C [10] of 66%. It also gave a viability, T/C (second compound 10 µM, first compound 0.000316 µM) of 70%, a viability, T/C (second compound 10 µM, first compound 0.001 µM) of 69.7% and a viability, T/C (second compound 10 µM, first compound 0.00316 µM) of 60.8%. It also gave a viability, T/C (second compound 10 µM, first compound 0.01 µM) of 62.9%, a viability, T/C [11] of 64.2% and a viability, T/C [12] of 57.9%.

Nc1ccn(C2OC(CO)C(O)C2(F)F)c(=O)n1 (stereo unspecified) + CNC(=O)c1ccc(Nc2nc(OC3CCCC3)c3c(-c4ccc5nc(C)oc5c4)c[nH]c3n2)c(OC)c1 was tested, and the IC50 (second compound 0.0316 µM) was 73.2 nM, the IC50 (second compound 0.1 µM) was 65.3 nM and the IC50 (second compound 0.316 µM) was 49.3 nM. The IC50 (second compound 1 µM) was 43.2 nM, the IC50 (second compound 3.16 µM) was 34.3 nM and the IC50 (second compound 10 µM) was under 31.6 nM. It also gave a viability, T/C [1] of 66.8%, a viability, T/C [2] of 45% and a viability, T/C [13] of 32.3%. It also gave a viability, T/C [14] of 35.2%, a viability, T/C [15] of 33.5% and a viability, T/C [16] of 30.5%. It also gave a viability, T/C [3] of 62.8%, a viability, T/C [4] of 43.4% and a viability, T/C [17] of 31.1%. It also gave a viability, T/C [18] of 33.4%, a viability, T/C [19] of 32.4% and a viability, T/C [20] of 26.6%. For the same molecule, the viability, T/C [5] was 59.8%, the viability, T/C [6] was 34% and the viability, T/C [21] was 27.5%. It also gave a viability, T/C [22] of 24.8%, a viability, T/C [23] of 25.1% and a viability, T/C [24] of 21.8%. It also gave a viability, T/C [7] of 58%, a viability, T/C [8] of 28.2% and a viability, T/C [25] of 20.7%. For the same molecule, the viability, T/C [26] was 17.2%, the viability, T/C [27] was 16.1% and the viability, T/C [28] was 13.9%. For the same molecule, the viability, T/C [9] was 51.8%, the viability, T/C [10] was 28.1% and the viability, T/C [29] was 18.7%. For the same molecule, the viability, T/C [30] was 15.4%, the viability, T/C [31] was 14.5% and the viability, T/C [32] was 13.2%. It also gave a viability, T/C [11] of 50%, a viability, T/C [12] of 24.5% and a viability, T/C [33] of 18.6%. It also gave a viability, T/C [34] of 16%, a viability, T/C [35] of 13.3% and a viability, T/C [36] of 11.2%.

For O=c1[nH]cc(F)c(=O)[nH]1 + CNC(=O)c1ccc(Nc2nc(OC3CCCC3)c3c(-c4ccc5nc(C)oc5c4)c[nH]c3n2)c(OC)c1, the IC50 (second compound 0.0316 µM) was over 10000 nM, the IC50 (second compound 0.1 µM) was over 10000 nM and the IC50 (second compound 0.316 µM) was over 10000 nM. The IC50 (second compound 1 µM) was over 10000 nM, the IC50 (second compound 3.16 µM) was over 10000 nM and the IC50 (second compound 10 µM) was over 10000 nM. The viability, T/C [1] was 82%, the viability, T/C [2] was 98.8% and the viability, T/C [13] was 80.4%. The viability, T/C [14] was 97.6%, the viability, T/C [15] was 95.1% and the viability, T/C [16] was 81%. The viability, T/C [3] was 95.5%, the viability, T/C [4] was 99.2% and the viability, T/C [17] was 97%. The viability, T/C [18] was 103%, the viability, T/C [19] was 93.6% and the viability, T/C [20] was 82.3%. The viability, T/C [5] was 81.4%, the viability, T/C [6] was 80.7% and the viability, T/C [21] was 81.3%. The viability, T/C [22] was 82%, the viability, T/C [23] was 87.3% and the viability, T/C [24] was 74.2%. The viability, T/C [7] was 79.2%, the viability, T/C [8] was 83.7% and the viability, T/C [25] was 75%. It also gave a viability, T/C [26] of 75.9%, a viability, T/C [27] of 71% and a viability, T/C [28] of 62.8%. For the same molecule, the viability, T/C [9] was 69.4%, the viability, T/C [10] was 70.4% and the viability, T/C [29] was 69.5%. For the same molecule, the viability, T/C [30] was 73.3%, the viability, T/C [31] was 68.1% and the viability, T/C [32] was 64.1%. It also gave a viability, T/C [11] of 63.3%, a viability, T/C [12] of 69.6% and a viability, T/C [33] of 72.1%. The viability, T/C [34] was 64.1%, the viability, T/C [35] was 67% and the viability, T/C [36] was 51.8%.
